Reference: US9725445B2, “Cycloalkyl nitrile pyrazolo pyridones as Janus kinase inhibitors” (Merck Sharp & Dohme Corp., priority 2013, dated 2017)

How the values were obtained:
JAK1 = JAK1 (Homo sapiens (Human), UniProt P23458); assay: Jak biochemical HTRF assay, JAK1; settings: HTRF biochemical assay, recombinant GST-tagged catalytic domain; read-out: JAK1 IC50
JAK2 = JAK2 (Homo sapiens (Human), UniProt O60674); assay: Jak biochemical HTRF assay, JAK2; settings: HTRF biochemical assay, recombinant GST-tagged catalytic domain; read-out: JAK2 IC50
Chain of JAK2 (O60674 849-1124): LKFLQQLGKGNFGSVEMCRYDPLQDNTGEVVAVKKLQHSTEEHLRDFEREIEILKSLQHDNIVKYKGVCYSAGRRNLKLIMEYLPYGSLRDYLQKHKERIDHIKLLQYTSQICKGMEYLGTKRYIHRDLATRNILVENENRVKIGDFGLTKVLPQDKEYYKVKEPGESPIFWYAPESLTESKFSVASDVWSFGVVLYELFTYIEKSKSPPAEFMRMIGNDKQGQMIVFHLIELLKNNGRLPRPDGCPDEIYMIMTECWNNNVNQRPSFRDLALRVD

Chain of JAK1 (P23458 875-1153): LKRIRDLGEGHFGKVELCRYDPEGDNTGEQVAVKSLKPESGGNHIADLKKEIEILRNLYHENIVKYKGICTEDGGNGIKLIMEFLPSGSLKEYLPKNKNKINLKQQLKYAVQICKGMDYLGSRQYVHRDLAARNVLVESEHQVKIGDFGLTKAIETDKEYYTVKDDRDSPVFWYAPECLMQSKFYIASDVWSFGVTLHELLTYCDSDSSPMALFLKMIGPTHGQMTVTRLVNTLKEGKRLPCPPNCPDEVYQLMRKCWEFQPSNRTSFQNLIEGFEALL

IC50 (JAK1)	IC50 (JAK2)	Structure (SMILES)
0.039 nM	0.19 nM	CC(C)(C)N1Cc2cc(Nc3nn([C@H]4CCCC[C@@H]4C#N)c4cc[nH]c(=O)c34)ccc2S1(=O)=O [Example 3-53, (1S,2S)-2-{3-[(2-tert-butyl-1,1-dioxido-2,3-dihydro-1,2-benzisothiazol-5-yl)amino]-4-oxo-4,5-dihydro-1H-pyrazolo[4,3-c]pyridin-1-yl}cyclohexanecarbonitrile]
0.12 nM	0.37 nM	N#C[C@H]1CCCC[C@@H]1n1nc(Nc2ccc([C@@H](N)C(F)(F)F)cc2)c2c(=O)[nH]ccc21 [Example 7-3, (1S,2S)-2-[3-({4-[(1R)-1-amino-2,2,2-trifluoroethyl]phenyl}amino)-4-oxo-4,5-dihydro-1H-pyrazolo[4,3-c]pyridin-1-yl]cyclohexanecarbonitrile]
0.25 nM	1.2 nM	N#Cc1ccc(Nc2nn([C@H]3CCC[C@@H]3C#N)c3cc[nH]c(=O)c23)cc1 [Example 3-112, 4-({1-[(1S,2S)-2-cyanocyclopentyl]-4-oxo-4,5-dihydro-1H-pyrazolo[4,3-c]pyridin-3-yl}amino)benzonitrile]
1.4 nM	2.3 nM	N#C[C@H]1CCCC[C@@H]1n1nc(Nc2cc(F)cc(CN)c2)c2c(=O)[nH]ccc21 [Example 6-3, (1S,2S)-2-(3-((3-(aminomethyl)-5-fluorophenyl)amino)-4-oxo-4,5-dihydro-1H-pyrazolo[4,3-c]pyridin-1-yl)cyclohexanecarbonitrile]
0.043 nM	0.28 nM	CC(C)(C)N1Cc2cc(Nc3nn([C@H]4CCC[C@@H]4C#N)c4cc[nH]c(=O)c34)ccc2S1(=O)=O [Example 3-100, (1S,2S)-2-{3-[(2-tert-butyl-1,1-dioxido-2,3-dihydro-1,2-benzisothiazol-5-yl)amino]-4-oxo-4,5-dihydro-1H-pyrazolo[4,3-c]pyridin-1-yl}cyclopentanecarbonitrile]
0.11 nM	0.33 nM	CN(C)S(=O)(=O)c1ccc(Nc2nn([C@H]3CCCC[C@@H]3C#N)c3cc[nH]c(=O)c23)cc1 [Example 3-6, 4-({1-[(1S,2S)-2-cyanocyclohexyl]-4-oxo-4,5-dihydro-1H-pyrazolo[4,3-c]pyridin-3-yl}amino)-N,N-dimethylbenzenesulfonamide]
1.3 nM	5.4 nM	CC1c2ccc(Nc3nn([C@H]4CCCC[C@@H]4C#N)c4cc[nH]c(=O)c34)cc2CN1C(=O)OC(C)(C)C (stereo partly drawn) [Example 18-1, tert-Butyl 5-((1-((1S,2S)-2-cyanocyclohexyl)-4-oxo-4,5-dihydro-1H-pyrazolo[4,3-c]pyridin-3-yl)amino)-1-methylisoindoline-2-carboxylate]
0.19 nM	0.28 nM	CCNC(c1ccc(Nc2nn([C@H]3CCC[C@@H]3C#N)c3cc[nH]c(=O)c23)cc1)C(F)(F)F (single isomer, unassigned) [Example 3-114, (1S,2S)-2-[3-({4-[(1S or 1R)-1-(ethylamino)-2,2,2-trifluoroethyl]phenyl}amino)-4-oxo-4,5-dihydro-1H-pyrazolo[4,3-c]pyridin-1-yl]cyclopentanecarbonitrile]
0.88 nM	31 nM	N#C[C@H]1C[C@@H](N2CCC2)CC[C@@H]1n1nc(Nc2ccc(OC(F)(F)F)cc2)c2c(=O)[nH]ccc21 [Example 5-24, (1S,2S,5S)-5-(azetidin-1-yl)-2-(4-oxo-3-((4-(trifluoromethoxy)phenyl)amino)-4,5-dihydro-1H-pyrazolo[4,3-c]pyridin-1-yl)cyclohexanecarbonitrile]
3 nM	4.2 nM	COCC(C)(O)c1cc(Nc2nn([C@H]3CCCC[C@@H]3C#N)c3cc[nH]c(=O)c23)ccc1S(C)(=O)=O (stereo partly drawn) [Example 3-85, (1S,2S)-2-(3-{[3-(1-hydroxy-2-methoxy-1-methylethyl)-4-(methylsulfonyl)phenyl]amino}-4-oxo-4,5-dihydro-1H-pyrazolo[4,3-c]pyridin-1-yl)cyclohexanecarbonitrile]
0.17 nM	0.17 nM	Cc1cc(Nc2nn([C@H]3CCCC[C@@H]3C#N)c3cc[nH]c(=O)c23)ccc1C(C)(C)n1ccnn1 [Example 15-33, (1S,2S)-2-[3-({3-methyl-4-[1-methyl-1-(1H-1,2,3-triazol-1-yl)ethyl]phenyl}amino)-4-oxo-4,5-dihydro-1H-pyrazolo[4,3-c]pyridin-1-yl]cyclohexanecarbonitrile]
0.24 nM	4 nM	CC1(O)CN([C@H]2CC[C@H](n3nc(Nc4ccc(Cl)cc4)c4c(=O)[nH]ccc43)[C@@H](C#N)C2)C1 [Example 5-22, (1S,2S,5S)-2-(3-((4-chlorophenyl)amino)-4-oxo-4,5-dihydro-1H-pyrazolo[4,3-c]pyridin-1-yl)-5-(3-hydroxy-3-methylazetidin-1-yl)cyclohexanecarbonitrile]
0.15 nM	0.47 nM	N#C[C@H]1CCCC[C@@H]1n1nc(Nc2ccc(S(=O)(=O)N3CCOCC3)cc2)c2c(=O)[nH]ccc21 [Example 3-24, (1S,2S)-2-(3-{[4-(morpholin-4-ylsulfonyl)phenyl]amino}-4-oxo-4,5-dihydro-1H-pyrazolo[4,3-c]pyridin-1-yl)cyclohexanecarbonitrile]
0.17 nM	2.9 nM	N#C[C@H]1CCCC[C@@H]1n1nc(Nc2ccc(-c3noc(=O)[nH]3)cc2)c2c(=O)[nH]ccc21 [Example 15-17, (1S,2S)-2-(4-oxo-3-{[4-(5-oxo-4,5-dihydro-1,2,4-oxadiazol-3-yl)phenyl]amino}-4,5-dihydro-1H-pyrazolo[4,3-c]pyridin-1-yl)cyclohexanecarbonitrile]
0.46 nM	0.82 nM	N#C[C@H]1CCCC[C@@H]1n1nc(Nc2ccc(CN)cc2)c2c(=O)[nH]ccc21 [Example 6-5, (1S,2S)-2-(3-((4-(aminomethyl)phenyl)amino)-4-oxo-4,5-dihydro-1H-pyrazolo[4,3-c]pyridin-1-yl)cyclohexanecarbonitrile]
0.095 nM	0.34 nM	N#C[C@H]1CCCC[C@@H]1n1nc(Nc2ccc(Cn3ccnn3)cc2)c2c(=O)[nH]ccc21 [Example 3-46, (1S,2S)-2-(4-oxo-3-{[4-(1H-1,2,3-triazol-1-ylmethyl)phenyl]amino}-4,5-dihydro-1H-pyrazolo[4,3-c]pyridin-1-yl)cyclohexanecarbonitrile]
0.082 nM	0.62 nM	N#C[C@H]1CCCC[C@@H]1n1nc(Nc2ccc3c(c2)CN(C2CCCCC2)C3=O)c2c(=O)[nH]ccc21 [Example 15-34, (1S,2S)-2-{3-[(2-cyclohexyl-1-oxo-2,3-dihydro-1H-isoindol-5-yl)amino]-4-oxo-4,5-dihydro-1H-pyrazolo[4,3-c]pyridin-1-yl}cyclohexanecarbonitrile]
0.48 nM	0.98 nM	N#C[C@H]1CCCC[C@@H]1n1nc(Nc2ccc(C3CCNCC3)cc2)c2c(=O)[nH]ccc21 [Example 15-25, (1S,2S)-2-{4-oxo-3-[(4-piperidin-4-ylphenyl)amino]-4,5-dihydro-1H-pyrazolo[4,3-c]pyridin-1-yl}cyclohexanecarbonitrile]
0.026 nM	0.29 nM	CN1Cc2cc(Nc3nn([C@H]4CCCC[C@@H]4C#N)c4cc[nH]c(=O)c34)ccc2S1(=O)=O [Example 3-49, (1S,2S)-2-{3-[(2-methyl-1,1-dioxido-2,3-dihydro-1,2-benzisothiazol-5-yl)amino]-4-oxo-4,5-dihydro-1H-pyrazolo[4,3-c]pyridin-1-yl}cyclohexanecarbonitrile]
0.23 nM	0.92 nM	CC(=O)N1Cc2ccc(Nc3nn([C@H]4CCCC[C@@H]4C#N)c4cc[nH]c(=O)c34)cc2C1 [Example 15-26, (1S,2S)-2-{3-[(2-acetyl-2,3-dihydro-1H-isoindol-5-yl)amino]-4-oxo-4,5-dihydro-1H-pyrazolo[4,3-c]pyridin-1-yl}cyclohexanecarbonitrile]
0.083 nM	0.41 nM	CC(C)CN1Cc2cc(Nc3nn([C@H]4CCCC[C@@H]4C#N)c4cc[nH]c(=O)c34)ccc2S1(=O)=O [Example 3-62, (1S,2S)-2-(3-{[2-(2-methylpropyl)-1,1-dioxido-2,3-dihydro-1,2-benzisothiazol-5-yl]amino}-4-oxo-4,5-dihydro-1H-pyrazolo[4,3-c]pyridin-1-yl)cyclohexanecarbonitrile]
0.14 nM	0.84 nM	CC(O)(c1ccc(Nc2nn([C@H]3CCCC[C@@H]3C#N)c3cc[nH]c(=O)c23)cc1)C(F)(F)F (single isomer, unassigned) [Example 15-12, (1S,2S)-2-[4-oxo-3-({4-[(1R or 1S)-2,2,2-trifluoro-1-hydroxy-1-methylethyl]phenyl}amino)-4,5-dihydro-1H-pyrazolo[4,3-c]pyridin-1-yl]cyclohexanecarbonitrile]
0.25 nM	0.95 nM	CC(O)(CO)c1cc(Nc2nn([C@H]3CCCC[C@@H]3C#N)c3cc[nH]c(=O)c23)ccc1S(C)(=O)=O (stereo partly drawn) [Example 3-87, (1S,2S)-2-(3-{[3-(1,2-dihydroxy-1-methylethyl)-4-(methylsulfonyl)phenyl]amino}-4-oxo-4,5-dihydro-1H-pyrazolo[4,3-c]pyridin-1-yl)cyclohexanecarbonitrile]
0.33 nM	7 nM	CN(C)[C@H]1CC[C@H](n2nc(Nc3ccc(OC(F)(F)F)cc3)c3c(=O)[nH]ccc32)[C@@H](C#N)C1 [Example 5-26, (1S,2S,5S)-5-(dimethylamino)-2-(4-oxo-3-((4-(trifluoromethoxy)phenyl)amino)-4,5-dihydro-1H-pyrazolo[4,3-c]pyridin-1-yl)cyclohexanecarbonitrile]

Structure (SMILES)	IC50 (JAK1)	IC50 (JAK2)
N#CCC1(n2nc(Nc3ccc(C(N)C(F)F)cc3)c3c(=O)[nH]ccc32)CCCCC1 (single isomer, unassigned) [Example 9-2, (R or S)-2-(1-(3-(4-(1-Amino(-2,2-difluoroethyl)phenylamino)-4-oxo-4,5-dihydro-1H-pyrazolo[4,3-c]pyridin-1-yl)cyclohexyl)acetonitrile]	0.22 nM	0.51 nM
